The values that follow come from patent US20190375708A1 (VenatoRx Pharmaceuticals, Inc., priority 2018, published 2019).

The nature of series [1]: In vitro cytotoxicity assay (MTT cell viability) in HepG2 cells. In kind it is cell-based, human. The conditions noted are these: human. A digest of the protocol: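 Parental HepG2 cells in EMEM + 10% FBS were exposed to compounds (8 half-log dilutions, 30 μM to 1.0 nM) for 7 days at 37 °C, 5% CO2. MTT was then added for 3-4 h, formazan dissolved in DMSO and absorbance read at 492 nm; CC50 came from 4-parameter fits against vehicle controls.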

The test system of series [2] is HBV replication in HepAD38 cells. Nature of the series: Anti-HBV replication assay in HepAD38 cells (QPCR of extracellular HBV DNA). In kind it is cell-based, HBV (genotype D, serotype ayw). To be noted: Hepatitis B virus, 168 h, 7 days incubation, extracellular HBV DNA by QPCR, read-out: Anti-HBV EC50. A digest of the protocol: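 Compounds (1 log10 serial dilutions, […]) were left 7 days on tetracycline-free HepAD38 cultures, a HepG2 line with tet-controlled HBV genotype D. EC50 came from 4-parameter regression of percent inhibition versus vehicle, using supernatant HBV DNA copies/mL measured by QPCR.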

In general, CC50 refers to the concentration that lowers cell viability or growth by half. Read a high CC50 as better tolerance by the cells. A word on the EC50: it is the concentration giving half of the maximal effect.

Bounds are passed on as bounds.

With `Cc1cc(NC(=O)c2c(C)c(C(=O)C(=O)NC3(C)CCN(c4cnccn4)CC3)n(C)c2C)ccc1F` [Example 715, N-(4-fluoro-3-methylphenyl)-1,2,4-trimethyl-5-(2-((4-methyl-1-(pyrazin-2-yl)piperidin-4-yl)amino)-2-oxoacetyl)-1H-pyrrole-3-carboxamide], the CC50 at 7 days in series [1] fell in the range of 5000 to 30000 nM. The EC50 in series [2] is < 50 nM.
As for `CCn1c(C)c(C(=O)Nc2ccc(F)c(C)c2)c(C)c1C(=O)C(=O)NC(C)(C)C(N)=O` [Example 99, 5-(2-((1-amino-2-methyl-1-oxopropan-2-yl)amino)-2-oxoacetyl)-1-ethyl-N-(4-fluoro-3-methylphenyl)-2,4-dimethyl-1H-pyrrole-3-carboxamide], in series [1], the CC50 at 7 days was > 30000 nM. Further, in series [2], the half-maximal effective concentration (EC50) fell in the range of 50 to 499 nM.
Regarding `Cc1cc(NC(=O)c2cc(C(=O)C(=O)NC3(CO)CC(F)(F)C3)n3c2CCCC3)ccc1F` [Example 432, 3-(2-((3,3-difluoro-1-(hydroxymethyl)cyclobutyl)amino)-2-oxoacetyl)-N-(4-fluoro-3-methylphenyl)-5,6,7,8-tetrahydroindolizine-1-carboxamide], the CC50 at 7 days in series [1] is > 30000 nM. Further, the concentration giving a half-maximal response (EC50) in series [2] lay in the range of 50 to 499 nM.
Take `Cc1c(C(=O)Nc2cccc(Cl)c2)c(C)n(C)c1C(=O)C(=O)N[C@@H]1CCC[C@@H](O)C1` [Example 689, N-(3-chlorophenyl)-5-(2-(((1R,3R)-3-hydroxycyclohexyl)amino)-2-oxoacetyl)-1,2,4-trimethyl-1H-pyrrole-3-carboxamide]: in series [1], the CC50 at 7 days is > 30000 nM. In addition, in series [2], the EC50 is < 50 nM.
Consider `Cc1nc(C(C)(NC(=O)C(=O)c2c(C)c(C(=O)Nc3ccc(F)c(C)c3)c(C)n2C)C2CC2)no1` (centres unmarked) [Example 716, 5-(2-((1-cyclopropyl-1-(5-methyl-1,2,4-oxadiazol-3-yl)ethyl)amino)-2-oxoacetyl)-N-(4-fluoro-3-methylphenyl)-1,2,4-trimethyl-1H-pyrrole-3-carboxamide], for which the CC50 at 7 days in series [1] is > 30000 nM. For the same molecule, the concentration giving a half-maximal response (EC50) in series [2] was < 50 nM.
With `Cc1cc(NC(=O)c2c(C)c(C(=O)C(=O)N[C@@H](CO)C(N)=O)n(C)c2C)ccc1F` [Example 41, (S)-5-(2-((1-amino-3-hydroxy-1-oxopropan-2-yl)amino)-2-oxoacetyl)-N-(4-fluoro-3-methylphenyl)-1,2,4-trimethyl-1H-pyrrole-3-carboxamide], the half-maximal cytotoxic concentration (CC50) at 7 days in series [1] lay in the range of 500 to 4990 nM. Moreover, the EC50 in series [2] was < 50 nM.
Take `Cc1cc(NC(=O)c2c(C)c(C(=O)C(=O)NC3(C)CC(F)(F)C3)n(C)c2C)ccc1F` [Example 238, 5-(2-((3,3-difluoro-1-methylcyclobutyl)amino)-2-oxoacetyl)-N-(4-fluoro-3-methylphenyl)-1,2,4-trimethyl-1H-pyrrole-3-carboxamide]: the cytotoxic concentration (CC50) at 7 days in series [1] is > 30000 nM. The concentration giving a half-maximal response (EC50) in series [2] was < 50 nM.
Consider `Cc1cc(NC(=O)c2c(C)c(C(=O)C(=O)NC(C)c3nn[nH]n3)n(C)c2C)ccc1F` (centres unmarked) [Example 79, 5-(2-((1-(2H-tetrazol-5-yl)ethyl)amino)-2-oxoacetyl)-N-(4-fluoro-3-methylphenyl)-1,2,4-trimethyl-1H-pyrrole-3-carboxamide], for which the 50% cytotoxic concentration (CC50) at 7 days in series [1] was > 30000 nM. The concentration giving a half-maximal response (EC50) in series [2] was 50 to 499 nM.
Regarding `Cc1nnc(C2(NC(=O)C(=O)c3c(C)c(C(=O)Nc4ccc(F)c(C)c4)c(C)n3C)CC2)o1` [Example 182, N-(4-fluoro-3-methylphenyl)-1,2,4-trimethyl-5-(2-((1-(5-methyl-1,3,4-oxadiazol-2-yl)cyclopropyl)amino)-2-oxoacetyl)-1H-pyrrole-3-carboxamide], the CC50 at 7 days in series [1] is > 30000 nM. Besides, the half-maximal effective concentration (EC50) in series [2] is < 50 nM.
Consider `Cc1c(C(=O)Nc2ccc(F)c(Cl)c2)c(C)n(C)c1C(=O)C(=O)Nc1cccnc1` [Example 311, N-(3-chloro-4-fluorophenyl)-1,2,4-trimethyl-5-(22-oxo-2-(pyridin-3-ylamino)acetyl)-1H-pyrrole-3-carboxamide], for which, in series [1], the CC50 at 7 days was > 30000 nM. For the same molecule, the 50% effective concentration (EC50) in series [2] is < 50 nM.
